These results are taken from patent US12686690B2, “Macrocyclic urea orexin receptor agonists” (Merck Sharp & Dohme LLC, priority 2020, dated 2026).

The experiment deals with T1, hOX2R (Homo sapiens, UniProt O43614).
T1 construct: expressed in transfected cells; host or cells: CHO cells (G418 selection)
T1 sequence (O43614 1-444): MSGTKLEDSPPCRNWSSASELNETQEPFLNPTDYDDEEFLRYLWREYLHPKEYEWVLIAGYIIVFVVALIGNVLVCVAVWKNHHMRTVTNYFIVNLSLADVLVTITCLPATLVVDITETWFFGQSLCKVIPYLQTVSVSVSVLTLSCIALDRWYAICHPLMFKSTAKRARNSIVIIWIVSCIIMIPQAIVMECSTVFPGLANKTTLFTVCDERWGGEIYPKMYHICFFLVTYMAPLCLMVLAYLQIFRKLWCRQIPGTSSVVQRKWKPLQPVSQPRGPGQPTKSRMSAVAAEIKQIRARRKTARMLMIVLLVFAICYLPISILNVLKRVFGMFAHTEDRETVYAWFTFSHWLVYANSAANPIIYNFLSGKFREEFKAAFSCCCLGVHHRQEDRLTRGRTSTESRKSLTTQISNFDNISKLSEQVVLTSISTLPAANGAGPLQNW
In words: hOX2R IPone assay (orexin receptor agonism). The class given is cell-based. The settings on record: IPone readout; for hOX2R_Ipone max %act: maximal activation; for EC50: orexin receptor agonist, read-out: hOX2R_IPone EC50.

Each structure is given as a SMILES string.

As for `CCN1C(=O)N[C@@H](CCC(F)(F)F)CCCCCOc2nc(cn3ccnc23)-c2cc(ncc2OC)[C@H]1C` [Example 111, (3R,7R,E)-4-ethyl-25-methoxy-3-methyl-7-(3,3,3-trifluoropropyl)-13-oxa-4,6-diaza-1(6,8)-imidazo[1,2-a]pyrazina-2(4,2)-pyridinacyclotridecaphan-5-one], the hOX2R_Ipone max %act turned out to be 100.7% and the EC50 was 1.4 nM.

For the compound `CCN1C(=O)NC(CC23CC(C2)C3)CCCCCOc2nc(nn3ccnc23)-c2cc(ncc2OC)[C@H]1C` (stereo partly drawn) [Example 203, (3R,E)-7-(bicyclo[1.1.1]pentan-1-ylmethyl)-4-ethyl-25-methoxy-3-methyl-13-oxa-4,6-diaza-1(2,4)-imidazo[2,1-f][1,2,4]triazina-2(4,2)-pyridinacyclotridecaphan-5-one], the hOX2R_Ipone max %act was determined as 100% and the EC50 amounted to 11.4 nM.

As for `CCN1C(=O)N[C@@H](CCC(F)(F)F)COCCCOc2nc(cn3ncnc23)-c2ccnc(c2F)[C@H]1C` (single isomer, unassigned) [Example 175], the hOX2R_Ipone max %act was found to be 93.8% and the EC50 amounted to 9.06 nM.

As for `CCN1C(=O)N[C@@H](CCC(F)(F)F)CCCCCOc2nc(cn3ccnc23)C2=NC=C(S2)C1C` (single isomer, unassigned) [Example 94A], the hOX2R_Ipone max %act worked out at 97.9% and the EC50 was found to be 167 nM.

Regarding `CCN1C(=O)N[C@@H](CCC(F)(F)F)CCCCCOc2nc(cn3ccnc23)-c2cc(cnc2C)[C@H]1C` [Example 78, (12R,16R)-13-ethyl-8,12-dimethyl-16-(3,3,3-trifluoropropyl)-12,13,16,17,18,19,20, 21-octahydro-6,23-(azeno)-11,7-(metheno)imidazo[2,1-c][1,4,9,13,15]oxatet-raazacyclohenicosin-14(15H)-one], the hOX2R_Ipone max %act is reported as 99.0% and the EC50 amounted to 1.7 nM.

For `CCN1C(=O)N[C@@H](CCC(F)(F)F)CCCCCOc2nc(cc3cccnc23)-c2cc(ncc2OC)[C@H]1C` [Example 162, (3R,7R)-4-ethyl-25-methoxy-3-methyl-7-(3,3,3-trifluoropropyl)-13-oxa-4,6-diaza-1(6,8)-naphthyridina-2(4,2)-pyridinacyclotridecaphan-5-one], the hOX2R_Ipone max %act was determined as 104.8% and the EC50 is 5.9 nM.

As to `CCN1C(=O)N[C@@H](CCC(F)(F)F)CCCCCOc2nc(cn3ccnc23)-c2cc(nc(C)n2)[C@H]1C` [Example 119B, (12R,16R)-13-ethyl-9,12-dimethyl-16-(3,3,3-trifluoropropyl)-12,13,16,17,18,19,20,21-octahydro-6,23-(azeno)-11,7-(metheno)imidazo[2,1-c][1,4,8,10,13,15]oxapentaazacyclohenicosin-14(15H)-one], the hOX2R_Ipone max %act was found to be 99.9% and the EC50 worked out at 4.6 nM.

As for `CCN1C(=O)N[C@@H](CC(F)(F)F)CCCCCOc2nc(cn3ccnc23)-c2ccnc(c2)[C@H]1C` [Example 103, (12R,16R)-13-ethyl-12-methyl-16-(2,2,2-trifluoroethyl)-12,13,16,17,18,19,20, 21-octahydro-6,23-(azeno)-11,7-(metheno)imidazo[2,1-c][1,4,10,13,15] oxatetraazacycloheni-cosin-14(15H)-one], the hOX2R_Ipone max %act worked out at 100.8% and the EC50 was 13.1 nM.

For `CCN1C(=O)NC(C)CCCCCOc2nc(cn3ccnc23)-c2cc(ncc2OC)[C@H]1C` (single isomer, unassigned) [Example 9A], the hOX2R_Ipone max %act is on record as 99.27% and the EC50 was determined as 416 nM.

As to `CCN1C(=O)N[C@@H](CCC(F)(F)F)CCCCCOc2nc(cn3ccnc23)-c2cnnc(c2)[C@H]1C` [Example 159, (3R,7R,E)-4-ethyl-3-methyl-7-(3,3,3-trifluoropropyl)-13-oxa-4,6-diaza-1(6,8)-imidazo[1,2-a]pyrazina-2(5,3)-pyridazinacyclotridecaphan-5-one], the hOX2R_Ipone max %act was 72.77% and the EC50 was determined as 541 nM.

Regarding `CCN1C(=O)N[C@@H](CCC(F)(F)F)CCCCCOc2cc(cn3ccnc23)-c2cc(ncn2)C1C` (single isomer, unassigned) [Example 96B], the hOX2R_Ipone max %act was 100.5% and the EC50 worked out at 2.9 nM.

On to `CCN1C(=O)N[C@@H](CCC(F)(F)F)CCCCCOc2nc(cn3ccnc23)-c2nc(cnc2OC)[C@H]1C` [Example 139, (3R,7R,E)-4-ethyl-23-methoxy-3-methyl-7-(3,3,3-trifluoropropyl)-13-oxa-4,6-diaza-1(6,8)-imidazo[1,2-a]pyrazina-2(2,6)-pyrazinacyclotridecaphan-5-one], for which the hOX2R_Ipone max %act was 97.88% and the EC50 stood at 1.08 nM.

For `CCN1C(=O)N[C@@H](CCC(C)(F)F)CCOCCOc2nc(cn3ncnc23)-c2ccnc(c2)[C@H]1C` [Example 180], the hOX2R_Ipone max %act worked out at 100.8% and the EC50 was 4.15 nM.

Turning to `CCN1C(=O)N[C@@H](CC(F)(F)F)CCCCCOc2nc(nn3ccnc23)-c2ccnc(c2)[C@H]1C` [Example 101, (12R,16R)-13-ethyl-12-methyl-16-(2,2,2-trifluoroethyl)-12,13,16,17,18,19,20, 21-octahydro-6,23-(azeno)-11,7-(metheno)imidazo[2,1-c][1,4,5,10,13,15] oxapentaazacycloheni-cosin-14(15H)-one], the hOX2R_Ipone max %act amounted to 97.69% and the EC50 was 248 nM.

For `CCN1C(=O)N[C@@H](CC(F)(F)F)CCCCCOc2nc(nn3ccnc23)-c2cc(cnc2OC)[C@H]1C` [Example 99, (12R,16R)-13-ethyl-8-methoxy-12-methyl-16-(2,2,2-trifluoroethyl)-12,13,16,17,18,19,20, 21-octahydro-6,23-(azeno)-11,7-(metheno)imidazo[2,1-c][1,4,5,9,13,15] oxapentaazacycloheni-cosin-14(15H)-one], the hOX2R_Ipone max %act was 95.9% and the EC50 was found to be 48.8 nM.

Take `CCN1C(=O)NC(CC2CC2(F)F)CCCCCOc2nc(cn3ccnc23)-c2cc(ncc2OC)[C@H]1C` (single isomer, unassigned) [Example 59D]: the hOX2R_Ipone max %act was 100.9% and the EC50 turned out to be 0.9 nM.

With `CCN1C(=O)NC(CC2CC(F)(F)C2)CCCCCOc2nc(cn3ccnc23)-c2cc(ncc2OC)[C@H]1C` (single isomer, unassigned) [Example 69B], the hOX2R_Ipone max %act worked out at 101.1% and the EC50 worked out at 0.6 nM.

For the compound `CCN1C(=O)N[C@@H](CCC(F)(F)F)CCCCOc2nc(cn3cc(C)nc23)-c2cc(ncc2OC)C1C(F)(F)F` (single isomer, unassigned) [Example 36A], the hOX2R_Ipone max %act was found to be 101% and the EC50 was found to be 64 nM.

For `CCN1C(=O)N[C@@H](CCC(F)(F)F)CCCCOCc2nc(cn3ccnc23)-c2cc(ncc2OC)[C@H]1C` [Example 144, (3R,7R,E)-4-ethyl-25-methoxy-3-methyl-7-(3,3,3-trifluoropropyl)-12-oxa-4,6-diaza-1(6,8)-imidazo[1,2-a]pyrazina-2(4,2)-pyridinacyclotridecaphan-5-one], the hOX2R_Ipone max %act came to 101.4% and the EC50 was 6.09 nM.

Take `CCN1C(=O)NC(c2nnnn2C)CCCCCOc2nc(cn3ccnc23)-c2cc(ncc2OC)[C@H]1C` (stereo partly drawn) [Example 217, (3R,E)-4-ethyl-2^5-methoxy-3-methyl-7-(1-methyl-1H-tetrazol-5-yl)-13-oxa-4,6-diaza-1(6,8)-imidazo[1,2-a]pyrazina-2(4,2)-pyridinacyclotridecaphan-5-one]: the hOX2R_Ipone max %act came to 100.1% and the EC50 was 0.98 nM.

As to `CCN1C(=O)NC(CCC(C)(C)F)CCCCCOc2nc(cn3ccnc23)-c2cc(ncc2OC)[C@H]1C` (single isomer, unassigned) [Example 71B], the hOX2R_Ipone max %act is given as 101.6% and the EC50 stood at 1.6 nM.

Turning to `CCN1C(=O)NC(CC2CC2)CCCCCOc2nc(cn3ccnc23)-c2cc(ncc2OC)[C@H]1C` (single isomer, unassigned) [Example 55B], the hOX2R_Ipone max %act is 101.2% and the EC50 was 0.6 nM.

In the case of `CCN1C(=O)N[C@@H](CCC(F)(F)F)C/C=C\COc2nc(cn3ccnc23)-c2cccc(c2)[C@H]1C` [Example 31, (1^7E,3R,7S,9Z)-4-ethyl-3-methyl-7-(3,3,3-trifluoropropyl)-12-oxa-4,6-diaza-1(6,8)-imidazo[1,2-a]pyrazina-2(1,3)-benzenacyclododecaphan-9-en-5-one], the hOX2R_Ipone max %act was determined as 100.5% and the EC50 worked out at 8 nM.

In the case of `CCN1C(=O)NC(c2csc(C)n2)CCCCCOc2nc(cn3ccnc23)-c2cc(cnc2OC)C1C` [Example 215, (3R,E)-4-ethyl-22-methoxy-3-methyl-7-(2-methylthiazol-4-yl)-13-oxa-4,6-diaza-1(6,8)-imidazo[1,2-a]pyrazina-2(3,5)-pyridinacyclotridecaphan-5-one], the hOX2R_Ipone max %act came out at 104.9% and the EC50 stood at 3.56 nM.

As for `CCN1C(=O)N[C@@H](C(F)(F)F)CCCCOc2nc(cn3ccnc23)-c2cc(ncc2OC)C1C(F)(F)F` (single isomer, unassigned) [Example 39B], the hOX2R_Ipone max %act is listed as 97.5% and the EC50 turned out to be 1060 nM.

For `CCN1C(=O)NC(C#N)CCCCCOc2nc(cn3ccnc23)-c2cc(ncc2OC)[C@H]1C` (single isomer, unassigned) [Example 224], the hOX2R_Ipone max %act is recorded as 99.26% and the EC50 was 71.2 nM.
